Reference: ChEMBL document CHEMBL1201862, “PubChem BioAssay data set” (2004)
Activity calls are given as the source filed them.

Legend:
[1] = Fluorescence polarization-based biochemical high throughput dose response assay for activators of the Protein Kinase A-R1A (PKA-R1A) complex. [Related pubchem assays (depositor defined):AID504704, AID504707, AID504799, AID504800]
[2] = Fluorescence polarization-based biochemical high throughput dose response assay for activators of the Protein Kinase A-R2B (PKA-R2B) complex. [Related pubchem assays (depositor defined):AID504700, AID504704, AID504796, AID504797]
[3] = biological target: T1, Dual specificity protein phosphatase 3 (Homo sapiens, UniProt P51452); assay: SAR VHR1 Fluorescent Assay for In Vitro dose response studies Set 3. [Related pubchem assays (depositor defined):AID1654, AID1661, AID1878]; assay type: functional
[4] = cytotoxicity in HMLE control line with eGFP shRNA, dose response, counter-screen for HMLE_sh_ECad selective toxicity project, cell-based, HMLE_sh_eGFP, luminescence (AID 463074); assay type: functional, Homo sapiens;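 note: HMLE human mammary epithelial cells expressing control shRNA against eGFP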
[5] = Luminescence Cell-Based Dose Retest to Confirm Inhibitors of Cancer Stem Cells. [Related pubchem assays (depositor defined):AID2717, AID2721]; assay type: functional; details: Homo sapiens
[6] = biological target: T2, Tyrosine-protein phosphatase non-receptor type 11 (Homo sapiens, UniProt Q06124); assay: SHP2 phosphatase inhibition, dose response, selectivity assay for STEP inhibitor project, biochemical (AID 602367); assay type: functional; details: read-out: IC50_Mean
T2 sequence (Q06124 whole entry): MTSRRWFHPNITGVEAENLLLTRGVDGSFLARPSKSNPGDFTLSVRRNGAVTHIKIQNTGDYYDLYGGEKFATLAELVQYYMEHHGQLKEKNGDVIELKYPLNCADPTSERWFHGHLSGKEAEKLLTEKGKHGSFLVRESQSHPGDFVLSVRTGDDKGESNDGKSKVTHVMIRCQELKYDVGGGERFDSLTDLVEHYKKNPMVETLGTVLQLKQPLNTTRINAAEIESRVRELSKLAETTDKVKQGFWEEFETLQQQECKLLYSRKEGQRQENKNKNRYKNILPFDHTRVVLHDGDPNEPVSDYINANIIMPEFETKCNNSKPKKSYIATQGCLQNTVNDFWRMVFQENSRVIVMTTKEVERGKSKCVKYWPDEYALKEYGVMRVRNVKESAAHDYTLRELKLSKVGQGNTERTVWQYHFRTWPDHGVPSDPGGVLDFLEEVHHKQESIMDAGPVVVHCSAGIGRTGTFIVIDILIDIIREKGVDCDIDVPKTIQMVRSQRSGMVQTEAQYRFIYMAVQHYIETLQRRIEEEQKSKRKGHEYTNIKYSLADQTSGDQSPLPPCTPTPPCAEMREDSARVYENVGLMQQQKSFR

[7] = biological target: T1, Dual specificity protein phosphatase 3; assay: VHR phosphatase inhibition, dose response, selectivity assay for STEP inhibitor project, biochemical (AID 602374); assay type: functional; details: read-out: IC50_Mean
[8] = biological target: T1, Dual specificity protein phosphatase 3; assay: VHR1 phosphatase inhibitors, biochemical (AID 1878)
[9] = biological target: T3, Dual specificity protein phosphatase 6 (Rattus norvegicus, UniProt Q64346); assay type: functional
T3 sequence (Q64346 whole entry): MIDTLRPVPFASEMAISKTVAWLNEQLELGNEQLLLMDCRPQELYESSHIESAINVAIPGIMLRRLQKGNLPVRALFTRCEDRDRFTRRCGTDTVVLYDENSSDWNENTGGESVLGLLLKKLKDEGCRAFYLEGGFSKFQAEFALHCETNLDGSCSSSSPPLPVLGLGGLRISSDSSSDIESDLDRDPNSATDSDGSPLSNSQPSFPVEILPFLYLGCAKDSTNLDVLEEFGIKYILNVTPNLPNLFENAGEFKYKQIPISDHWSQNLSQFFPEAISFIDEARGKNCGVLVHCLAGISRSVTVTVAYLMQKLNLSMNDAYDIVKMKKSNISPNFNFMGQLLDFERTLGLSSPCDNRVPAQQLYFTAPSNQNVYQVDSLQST

[10] = biological target: T4, Tyrosine-protein phosphatase non-receptor type 7 (Homo sapiens, UniProt P35236); assay: redox-dependent HePTP inhibition, mechanism study, biochemical, fluorescence (AID 2068); assay type: functional
T4 sequence (P35236 whole entry): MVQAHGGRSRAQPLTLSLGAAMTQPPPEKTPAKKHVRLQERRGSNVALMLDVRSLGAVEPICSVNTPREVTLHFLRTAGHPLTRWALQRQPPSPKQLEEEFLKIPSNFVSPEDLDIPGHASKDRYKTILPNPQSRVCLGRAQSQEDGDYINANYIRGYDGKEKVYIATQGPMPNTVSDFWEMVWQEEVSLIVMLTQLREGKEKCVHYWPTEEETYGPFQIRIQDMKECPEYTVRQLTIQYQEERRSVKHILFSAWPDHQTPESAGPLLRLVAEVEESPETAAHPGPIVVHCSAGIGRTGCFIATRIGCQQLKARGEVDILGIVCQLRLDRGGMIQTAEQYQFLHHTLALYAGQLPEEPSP

[11] = biological target: Glucose-6-phosphate 1-dehydrogenase (Homo sapiens, UniProt P11413); assay: human G6PD enzyme inhibitors, dose response, selectivity assay for P. falciparum G6PD inhibitor project, biochemical, fluorescence (AID 504792); assay type: functional
[12] = biological target: T3, Dual specificity protein phosphatase 6; assay: MKP-3 phosphatase inhibitors, primary screen, biochemical, rat enzyme, in vitro (AID 425)
[13] = biological target: T1, Dual specificity protein phosphatase 3; assay: SAR VHR1 absorbance Assay for In Vitro dose response studies. [Related pubchem assays (depositor defined):AID1654, AID1661, AID1878, AID1992, AID2004]
[14] = biological target: T4, Tyrosine-protein phosphatase non-receptor type 7; assay: SAR analysis of chemical inhibitors of HePTP using a Fluorescent assay - Set 2. [Related pubchem assays (depositor defined):AID1059, AID1077, AID1661, AID2085, AID521]; assay type: functional
[15] = biological target: T1, Dual specificity protein phosphatase 3; assay: SAR VHR1 Fluorescent Assay for In Vitro dose response studies Set 2. [Related pubchem assays (depositor defined):AID1654, AID1661, AID1878]; assay type: functional
[16] = biological target: T1, Dual specificity protein phosphatase 3; assay: SAR VHR1 Fluorescent Assay for In Vitro dose response studies. [Related pubchem assays (depositor defined):AID1654, AID1661, AID1878, AID1992, AID2004, AID2070, AID2085]; assay type: functional
[17] = biological target: T1, Dual specificity protein phosphatase 3; assay: VHR1 phosphatase inhibitors, primary screen, biochemical, absorbance, uHTS (AID 1654)
[18] = biological target: T3, Dual specificity protein phosphatase 6; assay: SAR analysis of inhibitors of MKP-3 - Set 2. [Related pubchem assays (depositor defined):AID1055, AID1661, AID425, AID553, AID566]; assay type: functional
[19] = biological target: T5, Tyrosine-protein phosphatase non-receptor type 22 (Homo sapiens, UniProt Q9Y2R2); assay: PTPN22 phosphatase inhibition, dose response, selectivity assay for STEP inhibitor project, biochemical (AID 624241); assay type: functional
T5 sequence (Q9Y2R2 whole entry): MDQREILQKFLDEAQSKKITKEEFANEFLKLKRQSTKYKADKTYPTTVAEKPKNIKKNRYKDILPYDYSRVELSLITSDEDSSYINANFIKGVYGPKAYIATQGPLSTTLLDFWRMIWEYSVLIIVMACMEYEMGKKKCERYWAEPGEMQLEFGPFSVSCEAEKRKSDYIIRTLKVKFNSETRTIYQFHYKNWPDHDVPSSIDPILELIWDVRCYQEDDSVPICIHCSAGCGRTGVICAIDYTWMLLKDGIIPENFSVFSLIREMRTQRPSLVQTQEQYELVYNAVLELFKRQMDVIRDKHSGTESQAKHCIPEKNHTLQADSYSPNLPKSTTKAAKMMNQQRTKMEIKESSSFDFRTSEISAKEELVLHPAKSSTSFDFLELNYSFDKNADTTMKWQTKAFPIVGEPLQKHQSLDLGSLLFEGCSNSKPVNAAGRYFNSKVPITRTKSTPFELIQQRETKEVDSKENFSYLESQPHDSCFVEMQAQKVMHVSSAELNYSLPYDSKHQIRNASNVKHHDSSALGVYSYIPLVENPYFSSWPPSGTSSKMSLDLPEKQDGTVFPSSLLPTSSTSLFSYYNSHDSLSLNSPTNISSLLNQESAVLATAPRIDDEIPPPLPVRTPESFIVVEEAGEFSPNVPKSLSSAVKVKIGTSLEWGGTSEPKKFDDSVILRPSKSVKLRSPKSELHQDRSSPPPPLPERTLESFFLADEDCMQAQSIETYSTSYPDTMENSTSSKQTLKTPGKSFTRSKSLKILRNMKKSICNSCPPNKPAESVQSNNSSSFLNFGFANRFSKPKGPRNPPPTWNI

[20] = biological target: T6, Tyrosine-protein phosphatase non-receptor type 5 (Homo sapiens, UniProt P54829); assay: STEP phosphatase inhibitors, confirmation, biochemical, fluorescence intensity, uHTS hits (AID 602372); assay type: functional; details: read-out: IC50_Mean
T6 sequence (P54829 whole entry): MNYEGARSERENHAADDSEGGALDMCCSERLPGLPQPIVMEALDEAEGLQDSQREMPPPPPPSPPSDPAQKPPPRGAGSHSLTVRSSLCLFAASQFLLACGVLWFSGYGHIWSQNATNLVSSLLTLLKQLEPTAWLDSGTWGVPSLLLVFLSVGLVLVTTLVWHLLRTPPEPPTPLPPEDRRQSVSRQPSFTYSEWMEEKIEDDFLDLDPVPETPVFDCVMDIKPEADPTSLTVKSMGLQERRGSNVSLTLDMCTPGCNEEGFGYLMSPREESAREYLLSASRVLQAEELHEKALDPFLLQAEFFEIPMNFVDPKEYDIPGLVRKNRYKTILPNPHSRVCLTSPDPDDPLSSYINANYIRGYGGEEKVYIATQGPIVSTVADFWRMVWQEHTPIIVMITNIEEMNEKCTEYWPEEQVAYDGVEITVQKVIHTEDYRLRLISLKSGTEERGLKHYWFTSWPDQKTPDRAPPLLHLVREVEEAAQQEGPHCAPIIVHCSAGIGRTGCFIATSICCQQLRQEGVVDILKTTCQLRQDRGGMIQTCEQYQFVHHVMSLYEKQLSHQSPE

Escherichia coli [21] = assay: microbe, parasite or virus in culture
Escherichia coli [22] = assay: microbe, parasite or virus in culture; remark: listed apart in the source

T1 sequence (P51452 whole entry): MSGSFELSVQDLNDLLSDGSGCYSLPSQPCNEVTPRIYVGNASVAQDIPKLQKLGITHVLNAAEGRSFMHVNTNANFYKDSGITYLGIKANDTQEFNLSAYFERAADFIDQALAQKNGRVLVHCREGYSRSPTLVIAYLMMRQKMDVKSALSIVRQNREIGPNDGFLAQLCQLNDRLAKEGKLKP
Sequence of Glucose-6-phosphate 1-dehydrogenase (P11413 whole entry): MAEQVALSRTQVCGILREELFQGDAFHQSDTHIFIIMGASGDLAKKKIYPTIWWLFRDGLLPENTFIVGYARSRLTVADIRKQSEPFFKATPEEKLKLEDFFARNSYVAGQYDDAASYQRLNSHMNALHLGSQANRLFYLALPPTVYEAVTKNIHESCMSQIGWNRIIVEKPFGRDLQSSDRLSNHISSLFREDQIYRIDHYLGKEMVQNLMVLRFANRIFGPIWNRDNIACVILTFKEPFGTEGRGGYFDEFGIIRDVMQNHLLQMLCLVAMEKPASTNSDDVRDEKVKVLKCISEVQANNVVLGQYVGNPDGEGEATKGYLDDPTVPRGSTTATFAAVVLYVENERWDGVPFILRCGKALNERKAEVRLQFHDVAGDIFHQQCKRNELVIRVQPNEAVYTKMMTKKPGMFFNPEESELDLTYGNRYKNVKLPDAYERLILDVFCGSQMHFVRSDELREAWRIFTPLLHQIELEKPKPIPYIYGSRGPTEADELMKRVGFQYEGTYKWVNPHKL

Nc1ncnc2c1nc(Br)n2[C@@H]1O[C@@H]2COP(=O)(O)O[C@H]2[C@H]1O
EC50 [1]: 0.0344 µM (active) | EC50 [2]: 0.0511 µM (active)

O=C(Nc1ccc(-c2nc3ccccc3s2)cc1)c1cc(-n2cnnc2)ccc1Cl
IC50 [3]: 12.1 µM (active)

COc1ccccc1N=C(S)N=Nc1c(O)[nH]c2ccc(Br)cc12
AC50 [4]: 31.4 µM (active) | AC50 [5]: 0.739 µM (active)

COc1ccc(NC(=S)N(CCC(C)C)C2CCN(C(C)C)CC2)cc1Cl
IC50 [6]: 0.676 µM (active) | IC50 [7]: 0.271 µM (active) | IC50 [8]: 4.01 µM (active) | IC50 [9]: > 99 µM (inactive) | IC50 [10]: < 0.195 µM (active) | IC50 [11]: > 80 µM (inactive) | IC50 [12]: > 158 µM (not active) | IC50 [13]: 1.26 µM (active) | IC50 [14]: 0.662 µM (active) | IC50 [15]: 0.216 µM (active) | IC50 [16]: > 99 µM (inactive) | IC50 [17]: 2.09 µM (active) | IC50 [18]: > 100 µM (inactive) | IC50 [19]: 21 µM (inactive) | IC50 [20]: 3.86 µM (active)

Cc1ccccc1C(=O)N1CCC(C(=O)NC(C)c2ccc(-n3ccnc3)cc2)CC1 (configuration not stated)
AC50 (Escherichia coli [21]): 24.5 µM (active) | AC50 (Escherichia coli [22]): 69.2 µM (active)
